Measurements taken from PMC11855478, “Bicyclic N,S-Acetals Containing Fused Cysteine-Amide System as New Heterocyclic Class Targeting Human Farnesyltransferase (FTase-h)” (International Journal of Molecular Sciences, 2025).

Columns and labels:
OVCAR-4 (Ovarian Cancer) = assay: NCI one dose, OVCAR-4; assay type: cell-based, human; conditions: OVCAR-4, 1.00E-5 Molar one dose
Method: (§1) 3.4. Cell Proliferation Assay
(§2) Selected compounds were tested on a panel of 60 human cancer cell lines at the National Cancer Institute (NCI), Germantown, MD, USA. The cytotoxicity studies were conducted using a 48 h exposure protocol using the sulfo-rhodamine B assay.

HCT-15 (Colon Cancer) = assay: NCI one dose, HCT-15; assay type: cell-based, human; conditions: HCT-15, 1.00E-5 Molar one dose
Method: as §1, §2

MCF7 (Breast Cancer) = assay: NCI one dose, MCF7; assay type: cell-based, human; conditions: MCF7, 1.00E-5 Molar one dose
Method: as §1, §2

[1] = test system: NCI-H322M (Non-Small Cell Lung Cancer); assay: NCI one dose, NCI-H322M; assay type: cell-based, human; conditions: 1.00E-5 Molar one dose
Method: as §1, §2

LOX IMVI (Melanoma) = assay: NCI one dose, LOX IMVI; assay type: cell-based, human; conditions: 1.00E-5 Molar one dose
Method: as §1, §2

SF-539 (CNS Cancer) = assay: NCI one dose, SF-539; assay type: cell-based, human; conditions: SF-539, 1.00E-5 Molar one dose
Method: as §1, §2

SK-MEL-5 (Melanoma) = assay: NCI one dose, SK-MEL-5; assay type: cell-based, human; conditions: SK-MEL-5, 1.00E-5 Molar one dose
Method: as §1, §2

HS 578T (Breast Cancer) = assay: NCI one dose, HS 578T; assay type: cell-based, human; conditions: 1.00E-5 Molar one dose
Method: as §1, §2

[2] = test system: HOP-62 (Non-Small Cell Lung Cancer); assay: NCI one dose, HOP-62; assay type: cell-based, human; conditions: HOP-62, 1.00E-5 Molar one dose
Method: as §1, §2

[3] = test system: EKVX (Non-Small Cell Lung Cancer); assay: NCI one dose, EKVX; assay type: cell-based, human; conditions: 1.00E-5 Molar one dose
Method: as §1, §2

UACC-62 (Melanoma) = assay: NCI one dose, UACC-62; assay type: cell-based, human; conditions: UACC-62, 1.00E-5 Molar one dose
Method: as §1, §2

MOLT-4 (Leukemia) = assay: NCI one dose, MOLT-4; assay type: cell-based, human; conditions: MOLT-4, 1.00E-5 Molar one dose
Method: as §1, §2

SNB-75 (CNS Cancer) = assay: NCI one dose, SNB-75; assay type: cell-based, human; conditions: SNB-75, 1.00E-5 Molar one dose
Method: as §1, §2

MDA-MB-435 (Melanoma) = assay: NCI one dose, MDA-MB-435; assay type: cell-based, human; conditions: MDA-MB-435, 1.00E-5 Molar one dose
Method: as §1, §2

[4] = test system: MDA-MB-468 breast cancer cells; assay: NCI one dose, MDA-MB-468; assay type: cell-based, human; conditions: MDA-MB-468, 1.00E-5 Molar one dose
Method: as §1, §2

SF-295 (CNS Cancer) = assay: NCI one dose, SF-295; assay type: cell-based, human; conditions: SF-295, 1.00E-5 Molar one dose
Method: as §1, §2

OVCAR-8 (Ovarian Cancer) = assay: NCI one dose, OVCAR-8; assay type: cell-based, human; conditions: OVCAR-8, 1.00E-5 Molar one dose
Method: as §1, §2

SF-268 (CNS Cancer) = assay: NCI one dose, SF-268; assay type: cell-based, human; conditions: SF-268, 1.00E-5 Molar one dose
Method: as §1, §2

RXF 393 (Renal Cancer) = assay: NCI one dose, RXF 393; assay type: cell-based, human; conditions: RXF 393, 1.00E-5 Molar one dose
Method: as §1, §2

TK-10 (Renal Cancer) = assay: NCI one dose, TK-10; assay type: cell-based, human; conditions: TK-10, 1.00E-5 Molar one dose
Method: as §1, §2

[5] = test system: panel of 60 human cancer cell lines; assay: NCI 60 cell panel one dose screen (whole panel); assay type: cell-based; design: Delta (One Dose Mean Graph): unit not given here; conditions: 1.00E-5 Molar one dose; for Range (One Dose Mean Graph): in % (unit assumed); for Mean Growth Percent: mean over tested cell lines
Method: as §1
Selected compounds were tested on a panel of 60 human cancer cell lines at the National Cancer Institute (NCI), Germantown, MD, USA. The cytotoxicity studies were conducted using a 48 h exposure protocol using the sulfo-rhodamine B assay. […]
X. NCI One Dose Mean Graph of sulfides 4a(A -J) and 4b(A-J)
The entire series of sulfides regrouping twenty synthesized FTI-candidates (4aA-J, 4bA-J) were selected by the National Cancer Institute (NCI) for evaluation of their antiproliferative activity against 60 cancer cell lines (see the followings twenty pages for full evaluation reports). […]
inhibiting 36% of the NCI-H522 cells. Such difference between IC50 on human FTase in the nanomolar range and IC50 on cancer cell growth in the micromolar range is characteristic to potent FTIs and was reported previously on different series of compounds (see for example ref erence in the references part […]
Of interest, none of the tested compounds at a high single dose (10 µM) in the full NCI 60 cell panel has shown a cytotoxic profile. […]
inhibitory potential on FTase raise good hope for further investigation of these series as agents fighting

[6] = test system: MDA-MB-231/ATCC (Breast Cancer); assay: NCI one dose, MDA-MB-231/ATCC; assay type: cell-based, human; conditions: 1.00E-5 Molar one dose
Method: as §1, §2

SK-OV-3 (Ovarian Cancer) = assay: NCI one dose, SK-OV-3; assay type: cell-based, human; conditions: SK-OV-3, 1.00E-5 Molar one dose
Method: as §1, §2

BT-549 (Breast Cancer) = assay: NCI one dose, BT-549; assay type: cell-based, human; conditions: BT-549, 1.00E-5 Molar one dose
Method: as §1, §2

SNB-19 (CNS Cancer) = assay: NCI one dose, SNB-19; assay type: cell-based, human; conditions: SNB-19, 1.00E-5 Molar one dose
Method: as §1, §2

UACC-257 melanoma cells = assay: NCI one dose, UACC-257; assay type: cell-based, human; conditions: UACC-257, 1.00E-5 Molar one dose
Method: as §1, §2

CAKI-1 (Renal Cancer) = assay: NCI one dose, CAKI-1; assay type: cell-based, human; conditions: CAKI-1, 1.00E-5 Molar one dose
Method: as §1, §2

U251 (CNS Cancer) = assay: NCI one dose, U251; assay type: cell-based, human; conditions: U251, 1.00E-5 Molar one dose
Method: as §1, §2

SMILES | Growth Percent (OVCAR-4 (Ovarian Cancer)) [%] | Growth Percent (HCT-15 (Colon Cancer)) [%] | Growth Percent (MCF7 (Breast Cancer)) [%] | Growth Percent [1] [%] | Growth Percent (LOX IMVI (Melanoma)) [%] | Growth Percent (SF-539 (CNS Cancer)) [%] | Growth Percent (SK-MEL-5 (Melanoma)) [%] | Growth Percent (HS 578T (Breast Cancer)) [%] | Growth Percent [2] [%] | Growth Percent [3] [%] | Growth Percent (UACC-62 (Melanoma)) [%] | Growth Percent (MOLT-4 (Leukemia)) [%] | Growth Percent (SNB-75 (CNS Cancer)) [%] | Growth Percent (MDA-MB-435 (Melanoma)) [%] | Growth Percent [4] [%] | Growth Percent (SF-295 (CNS Cancer)) [%] | Growth Percent (OVCAR-8 (Ovarian Cancer)) [%] | Growth Percent (SF-268 (CNS Cancer)) [%] | Growth Percent (RXF 393 (Renal Cancer)) [%] | Growth Percent (TK-10 (Renal Cancer)) [%] | other results
O=C(NCc1cccc(C(F)(F)F)c1)[C@@H]1CS[C@H]2c3ccccc3C(=O)N12 [4aD] | 105.79 | 100.16 | 91.11 | 93.97 | 100.26 | 101.49 | 110.95 | 110.09 | 85.91 | 103.29 | 89.84 | 86.93 | 75.92 | 107.10 | 98.77 | 95.03 | 94.59 | 96.16 | 114.41 | 117.52 | Delta (One Dose Mean Graph) [5]: 22.37; Range (One Dose Mean Graph) [5]: 46.64; Mean Growth Percent [5]: 97.10%; Growth Percent [6]: 97.44%; Growth Percent (SK-OV-3 (Ovarian Cancer)): 88.01%; Growth Percent (BT-549 (Breast Cancer)): 92.70%; Growth Percent (SNB-19 (CNS Cancer)): 95.15%; Growth Percent (UACC-257 melanoma cells): 89.32%; Growth Percent (CAKI-1 (Renal Cancer)): 97.61%; Growth Percent (U251 (CNS Cancer)): 94.74%
O=C(NCc1ccccc1C(F)(F)F)[C@@H]1CS[C@H]2c3ccccc3C(=O)N12 [4aC] | 105.74 | 103.73 | 90.35 | 103.27 | 102.58 | 95.88 | 107.31 | 104.53 | 87.37 | 99.35 | 88.82 | 85.46 | 85.21 | 102.87 | 112.27 | 94.85 | 94.34 | 93.86 | 115.46 | 108.86 | Delta (One Dose Mean Graph) [5]: 21.44; Range (One Dose Mean Graph) [5]: 40.62; Mean Growth Percent [5]: 96.28%; Growth Percent [6]: 91.35%; Growth Percent (SK-OV-3 (Ovarian Cancer)): 85.91%; Growth Percent (BT-549 (Breast Cancer)): 96.07%; Growth Percent (SNB-19 (CNS Cancer)): 95.80%; Growth Percent (UACC-257 melanoma cells): 86.31%; Growth Percent (CAKI-1 (Renal Cancer)): 97.48%; Growth Percent (U251 (CNS Cancer)): 91.06%
